PMC5663395, “Chemical Validation of Methionyl-tRNA Synthetase as a Druggable Target in Leishmania donovani” (ACS Infectious Diseases, 2017)
Values joined by “and” are separate entries in the source; they are usually repeats but may differ in a detail not shown here. Equal entries are not always repeated. Where two headings read alike, the source gives them in different places.

Legend:
[1] = system: protein synthesis in Leishmania tarentolae cell extract; assay: Leishmania tarentolae in vitro translation (eGFP expression in cell extract); assay type: biochemical; settings: L. tarentolae extract, read-out: EC50 inhibition of eGFP protein synthesis
Procedure: Crystals of TbMetRS:Met were obtained by incubating TbMetRS with 10 mM methionine and 1 mM TCEP before crystallisation by sitting drop vapour diffusion against a reservoir solution containing 2.0-2.3 M Ammonium Sulphate, 0.2 M NaCl, 0.1 M Na Cacodylate pH 6.0-6.6. Single crystals grew after 3-4 days incubation at 18 °C. To obtain ternary TbMetRS:Met:Ligand complexes, TbMetRS:Met crystals were soaked for 10-30 seconds in a 10 μl drop consisting of 1 μl of ligand (20 mM in 20% DMSO), 4 μl reservoir solution and 5 μl glycerol. Crystals were flash frozen immediately in liquid nitrogen in preparation for data collection.
Diffraction data were measured at Diamond Light Source beamline I02. […]
Protein translation in a Leishmania cell extract was studied using a commercially available cell-free protein expression kit (Jena Bioscience). Reactions were carried out in black 384-well, small-volume plates (Greiner) in 10 µl reaction volumes containing 7 µl L. tarentolae cell extract, 1 µl eGFP DNA template and 2 µl nuclease free water (‘no DNA’ wells were included as negative controls). eGFP expression was monitored over time using a BMG PheraStar plate reader (Excitation 485 nm; […]
The effect of DDD806905 on mitochondrial protein synthesis was determined by BioDuro using the MitoBiogenesisTM In-Cell ELISA Kit (Abcam). […] In the assay the levels of SDH-A and COX-1 are measured in H9C2 cells. […]

[2] = Plasma protein binding, equilibrium dialysis, human plasma; assay type: in vitro ADME; settings: read-out: fu (unbound fraction)
Procedure: which gave the best fit to the data was then recorded as the logP. Using the logP and an experimentally determined pKa (see above), the software generated a lipophilicity plot showing changes in the logD with increasing pH and from this plot a logD7.3 and logD5.6 values were recorded.
Plasma Protein Binding Determination
A 96-well equilibrium dialysis apparatus was used to determine the free fraction in plasma for DDD806905 (HT Dialysis LLC, Gales Ferry, CT). Membranes (12-14 kDA cut-off) were conditioned in deionised water for 60 minutes, followed by conditioning in 80:20 deionised water:ethanol for 20 minutes, and then rinsed in isotonic buffer before use. Female CD1 mouse plasma or human plasma was removed from the freezer and allowed to thaw on the day of experiment. Thawed plasma was then centrifuged (Allegra X12-R, Beckman Coulter, USA), spiked with test compound (final concentration 10 μg/ml), and 150 μL aliquots (n=6 replicate determinations) loaded into the 96-well equilibrium dialysis plate. […] All samples were analysed by UPLC-MS/MS on a Quattro Premier XE Mass Spectrometer (Waters Corporation, USA).
The unbound fraction (fu) was determined as the ratio of the peak area in buffer to that in plasma. […]

[3] = system: Leishmania donovani liver parasite burden; assay: Mouse visceral leishmaniasis efficacy model; settings: 50 mg/kg oral twice daily for 10 days, 50 mg/kg
[4] = Mouse pharmacokinetics integrated in efficacy study (blood levels); settings: female, BALB/c, whole blood, po, 50 mg/kg; for AUC(0-t): AUC(0-8h); for AUC(0-t) / Cmax: infected mice, 50 mg/kg oral; for Cmax: Cmax in blood

Structure (SMILES): Cl.Cl.O=c1nc(NCCCNCc2cc3c(Cl)cc(Cl)cc3[nH]2)[nH]c2ccccc12 [DDD806905, 2-((3-(((4,6-dichloro-1H-indol-2-yl)methyl)amino)propyl)amino)quinazolin-4(1H)-one dihydrochloride]
- EC50 ([1]; additional 1.5 mM methionine): 12 µM
- EC50 ([1]; no additional methionine): 2.2 µM
- fraction unbound at 5 h, 10 μg/ml [2]: 0.007
- reduction (knock-down) of liver parasite burden (LDU) vs vehicle [3]: 19% and 19.4%
- Tmax [4]: 2 h
- AUC(0-t) ([4]; day 1): 15800 ng·h/mL
- AUC(0-t) ([4]; day 10): 23300 ng·h/mL
- Cmax ([4]; first dose day 1): 2600 ng/mL
- Cmax ([4]; first dose day 10): 3200 ng/mL
